Assay results from patent publication US20250368628A1, “METHODS AND COMPOUNDS FOR MODULATING INHERITED GENETIC DISEASES” (Design Therapeutics, Inc., priority 2022, published 2025).
pEC50: −log10 of the molar value. Read-outs that look alike come from different tables or passages of the source.

Tests used:
[1] = tested on: Myotonic Dystrophy 1 affected patient fibroblasts (Coriel GM04602; 1600 CTG repeats); experiment: DM1 foci reduction assay (EC50 assay; CAG10-Cy3 FISH, foci per nucleus); format: cell-based
Method in brief: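 GM04602 DM1 patient fibroblasts (1600 CTG repeats) seeded 24 h, then treated 48 h at 37 °C with an 8-point 1:3 dose series from 3 μM. Cells PFA-fixed, ethanol-permeabilized and hybridized overnight with 5 nM CAG10-Cy3 probe, DAPI counterstained. Imaged at 20×, 4 fields per well, as average foci per nucleus.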

F35T cells = experiment: Foci reduction in FECD (CAG10-Cy3 FISH, foci per nucleus); format: cell-based
Method in brief: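 F35T cells, 5000 per well, were treated for 48 h at 37 °C, 5% CO2 in an 8-point dose response. Cells were then fixed in 4% PFA, permeabilized in 70% ethanol and hybridized overnight at 37 °C with a CAG10-Cy3 probe in 30% formamide/2×SSC. After DAPI staining, imaging gave foci per nucleus.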

[2] = Homo sapiens, Fibroblast; DM1 patient fibroblasts, 48 h treatment, foci per nucleus; read-out: DM1 EC50, 48 h
[3] = F35T cells, 48 h treatment, foci per nucleus; read-out: FECD EC50, 48 h

SMILES | pEC50 [1, 2] | pEC50 (F35T cells; [3]) | pEC50 ([1]; Homo sapiens, Fibroblast; DM1 patient fibroblasts, foci per nucleus, 48 h treatment; read-out: DM1 EC50, 48 h) | pEC50 (F35T cells; F35T cells, foci per nucleus, 48 h treatment; read-out: FECD EC50, 48 h)
Cn1cc(NC(=O)c2nc(NC(=O)CCNC(=O)c3cc(NC(=O)c4nccn4C)cn3C)cn2C)cc1C(=O)NCCCC(=O)Nc1cn(C)c(C(=O)NCCC(=O)Nc2cc(C(=O)Nc3cn(C)c(C(=O)NCCC(=O)N4CCC(N5CCN(CCOCCOCCOCCOCCNC(=O)OC(C)(C)C)CC5)CC4)n3)n(C)c2)n1 [Compound B-23] | 6.30 to 7.00 | < 6.00 | – | –
CN(C)CCCNC(=O)c1cc(NC(=O)CCNC(=O)c2nc(NC(=O)[C@H](N)CCNC(=O)c3cc(NC(=O)c4nc(NC(=O)CCNC(=O)c5cc(NC(=O)c6nccn6C)cn5C)cn4C)cn3C)cn2C)cn1C [Compound B-367] | < 6.00 | < 6.00 | – | –
Cn1cc(NC(=O)c2nc(NC(=O)CCNC(=O)c3cc(NC(=O)c4nccn4C)cn3C)cn2C)cc1C(=O)NCCCC(=O)Nc1cn(C)c(C(=O)NCCC(=O)Nc2cc(C(=O)Nc3cn(C)c(C(=O)NCCC(=O)NCC#Cc4ccccc4)n3)n(C)c2)n1 [Compound B-136] | 6.30 to 7.00 | 6.30 to 7.00 | – | –
COCCOCCOCCOCCOCCOCCC(=O)NCCCCCCn1cc(NC(=O)c2nc(NC(=O)CCNC(=O)c3cc(NC(=O)c4nccn4C)cn3C)cn2C)cc1C(=O)NCCCC(=O)Nc1cn(C)c(C(=O)NCCC(=O)Nc2cc(C(=O)Nc3cn(C)c(C(=O)NCCCN(C)CCCNC(=O)c4cccc(C(=O)O)c4)n3)n(C)c2)n1 [Compound B-237] | 6.00 to 6.30 | 6.30 to 7.00 | – | –
CC(Nc1cc(C(=O)NCCC(=O)Nc2cn(C)c(C(=O)Nc3cc(C(=O)NCCCC(=O)Nc4cn(C)c(C(=O)NCCC(=O)Nc5cc(C(=O)Nc6cn(C)c(C(=O)NCCC(=O)NCCOCCOCCOCCOCCOCCN)n6)n(C)c5)n4)n(C)c3)n2)n(C)c1)c1nccn1C (centres unmarked) [Compound B-77] | 6.30 to 7.00 | 6.30 to 7.00 | – | –
Cn1cc(NC(=O)c2nc(NC(=O)CCNC(=O)c3cc(NC(=O)c4nccn4C)cn3C)cn2C)cc1C(=O)NCCCC(=O)Nc1cn(C)c(C(=O)NCCC(=O)Nc2cc(C(=O)Nc3cn(C)c(C(=O)NCCC(=O)N4CCN(C5CCNCC5)CC4)n3)n(C)c2)n1 [Compound B-117] | 6.30 to 7.00 | 6.00 to 6.30 | – | –
CCCNC(=O)c1nc(NC(=O)CCNC(=O)c2cc(NC(=O)c3nc(NC(=O)CCCNC(=O)c4cc(NC(=O)c5nc(NC(=O)CCNC(=O)c6cc(NC(=O)c7nccn7C)cn6C)cn5C)cn4C)cn3C)cn2C)cn1C [Compound B-44] | < 6.00 | < 6.00 | – | –
Cn1cc(NC(=O)c2nc(NC(=O)CCNC(=O)c3cc(NC(=O)c4nccn4C)cn3C)cn2C)cc1C(=O)NCCCC(=O)Nc1cn(C)c(C(=O)NCCC(=O)Nc2cc(C(=O)Nc3cn(C)c(C(=O)NCCC(=O)NCC#CC#Cc4ccccc4)n3)n(C)c2)n1 [Compound B-134] | > 7.00 | > 7.00 | – | –
CC(=O)NCCCCn1cc(NC(=O)c2nc(NC(=O)CCNC(=O)c3cc(NC(=O)c4nccn4C)cn3C)cn2C)cc1C(=O)NCCCC(=O)Nc1cn(C)c(C(=O)NCCC(=O)Nc2cc(C(=O)Nc3cn(C)c(C(=O)NCCC(=O)N4CCC(C#CC#CC5CCNCC5)CC4)n3)n(C)c2)n1 [Compound B-284] | > 7.00 | > 7.00 | – | –
COCCOCCOCCOCCOCCOCCC(=O)NCCCCCCn1cc(NC(=O)c2nc(NC(=O)CCNC(=O)c3cc(NC(=O)c4nccn4C)cn3C)cn2C)cc1C(=O)NCCCC(=O)Nc1cn(C)c(C(=O)NCCC(=O)Nc2cc(C(=O)Nc3cn(C)c(C(=O)NCCC(=O)N4CCC(C#CC#CC5CCN(C(=O)OC(C)(C)C)CC5)CC4)n3)n(C)c2)n1 [Compound B-351] | < 6.00 | > 7.00 | – | –
Cn1cc(NC(=O)c2nc(NC(=O)CCNC(=O)c3cc(NC(=O)c4nccn4C)cn3C)cn2C)cc1C(=O)NCCCC(=O)Nc1cn(C)c(C(=O)NCCC(=O)Nc2cc(C(=O)Nc3cn(C)c(C(=O)NCCCCN=[N+]=[N-])n3)n(C)c2)n1 [Compound B-203] | > 7.00 | > 7.00 | – | –
CN(C)CCCCNC(=O)c1nc(NC(=O)c2cc(NC(=O)CCNC(=O)c3nc(NC(=O)C[C@H](CNC(=O)c4cc(NC(=O)c5nc(NC(=O)CCNC(=O)c6cc(NC(=O)c7nccn7C)cn6C)cn5C)cn4C)NC(=O)c4ccccc4)cn3C)cn2C)cn1C [Compound B-424] | – | – | 6.30 to 7.00 | 6.30 to 7.00
CSCCCCN1CCC(C#CC#CC2CCN(CCOCCOCCOCCNC(=O)CCNC(=O)c3nc(NC(=O)c4cc(NC(=O)CCNC(=O)c5nc(NC(=O)CCCNC(=O)c6cc(NC(=O)c7nc(NC(=O)CCNC(=O)c8cc(NC(=O)c9nccn9C)cn8C)cn7C)cn6C)cn5C)cn4C)cn3C)CC2)CC1 [Compound B-174] | 6.30 to 7.00 | 6.30 to 7.00 | – | –
Cn1cc(NC(=O)c2nc(NC(=O)CCNC(=O)c3cc(NC(=O)c4nccn4C)cn3C)cn2C)cc1C(=O)NCCCC(=O)Nc1cn(C)c(C(=O)NCCC(=O)Nc2cc(C(=O)Nc3cn(C)c(C(=O)NCCCN(C(=O)OC(C)(C)C)C(CO)CO)n3)n(C)c2)n1 [Compound B-390] | 6.30 to 7.00 | 6.30 to 7.00 | – | –
CCN(CC)CCCC[C@H](NC(C)=O)C(=O)Nc1ccc(OCCOCCOCCNC(=O)CCNC(=O)c2nc(NC(=O)c3cc(NC(=O)CCNC(=O)c4nc(NC(=O)CCCNC(=O)c5cc(NC(=O)c6nc(NC(=O)CCNC(=O)c7cc(NC(=O)c8nccn8C)cn7C)cn6C)cn5C)cn4C)cn3C)cn2C)cc1 [Compound B-147] | 6.30 to 7.00 | 6.30 to 7.00 | – | –
Cn1cc(NC(=O)c2nc(NC(=O)CCNC(=O)c3cc(NC(=O)c4nccn4C)cn3C)cn2C)cc1C(=O)NCCCC(=O)Nc1cn(C)c(C(=O)NCCC(=O)Nc2cc(C(=O)Nc3cn(C)c(C(=O)NCCC(=O)N4CCN(CCOCCOCCOCCOCCN)CC4)n3)n(C)c2)n1 [Compound B-28] | 6.00 to 6.30 | 6.00 to 6.30 | – | –
Cn1cc(NC(=O)c2nc(NC(=O)CCNC(=O)c3cc(NC(=O)c4nccn4C)cn3C)cn2C)cc1C(=O)NCCCC(=O)Nc1cn(C)c(C(=O)NCCC(=O)Nc2cc(C(=O)Nc3cn(C)c(C(=O)NCCC(=O)NCCCCC#N)n3)n(C)c2)n1 [Compound B-113] | > 7.00 | > 7.00 | – | –
CCCCn1cc(NC(=O)c2nc(NC(=O)CCNC(=O)c3cc(NC(=O)c4nccn4C)cn3C)cn2C)cc1C(=O)NCCCC(=O)Nc1cn(C)c(C(=O)NCCC(=O)Nc2cc(C(=O)Nc3cn(C)c(C(=O)NCCC(=O)NCCC)n3)n(C)c2)n1 [Compound B-321] | > 7.00 | > 7.00 | – | –
CCCCCNC(=O)c1nc(NC(=O)c2cc(NC(=O)CCNC(=O)c3nc(NC(=O)CCCNC(=O)c4cc(NC(=O)c5nc(NC(=O)CCNC(=O)c6cc(NC(=O)c7nccn7C)cn6C)cn5C)cn4CCCCCCN=[N+]=[N-])cn3C)cn2C)cn1C [Compound B-232] | > 7.00 | > 7.00 | – | –
Cn1cc(NC(=O)c2nc(NC(=O)CCNC(=O)c3cc(NC(=O)c4nccn4C)cn3C)cn2C)cc1C(=O)NCCCC(=O)Nc1cn(C)c(C(=O)NCCC(=O)Nc2cc(C(=O)Nc3cn(C)c(C(=O)NCCC(=O)N4CC(c5cnc(CNC(=O)OCc6ccccc6)[nH]5)C4)n3)n(C)c2)n1 [Compound B-68] | 6.30 to 7.00 | 6.30 to 7.00 | – | –
COC(=O)c1ccc(C#CCNCCCNC(=O)c2nc(NC(=O)c3cc(NC(=O)CCNC(=O)c4nc(NC(=O)CCCNC(=O)c5cc(NC(=O)c6nc(NC(=O)CCNC(=O)c7cc(NC(=O)c8nccn8C)cn7C)cn6C)cn5C)cn4C)cn3C)cn2C)cc1 [Compound B-362] | > 7.00 | > 7.00 | – | –
Cn1cc(NC(=O)c2nc(NC(=O)CCNC(=O)c3cc(NC(=O)c4nccn4C)cn3C)cn2C)cc1C(=O)NCCCC(=O)Nc1cn(C)c(C(=O)NCCC(=O)Nc2cc(C(=O)Nc3cn(C)c(C(=O)NCCC(=O)N[C@@H](CCCNC(=N)N)C(=O)N[C@@H](CCCNC(=N)N)C(=O)N[C@@H](CCCNC(=N)N)C(=O)N[C@@H](CCCNC(=N)N)C(=O)NCCCCN=[N+]=[N-])n3)n(C)c2)n1 [Compound B-151] | < 6.00 | 6.30 to 7.00 | – | –
